Data: patent publication US6127519A, “Calcitonin derivatives” (Tsumura & Co., priority 1990, dated 2000)
Bridge positions count the residues as written; N and C are the ends. Ends that are not written are not given here. Peptide text beside a SMILES is read from it.

System: calcium concentration in the serum
Test: Test 1: reduction of calcium level in serum after tail vein administration to rats
Format: in vivo, rats of the Wistar strain
Conditions: 1 ml/kg tail vein, female Wistar rats
Procedure: Six-weeks-old female rats of the Wistar strain (each group consisting of 4 rats) were used as the test animal, and the peptides of the present invention obtained in the examples given hereinafter were tested at concentrations adjusted with a 1% aqueous solution of sodium acetate (pH 4,0) to which 0.1% bovine serum albumin (BSA) was added. The solution was adjusted to a concentration of 166 μg/ml 830 ng/ml or 83 ng/ml and administered with the tail vein in an amount of 1 ml/kg. The back of the rat was fixed and blood was collected just before the administration, and at predetermined intervals after the administration, from the neck vein. The amount of blood collected each time was 0.3 ml. The sampled blood was subjected to centrifugal separation at 3500 rpm for 20 minutes to separate serum and the calcium content in the separated serum was measured by TBA-380 (supplied by Toshiba) using a Wako calcium-measuring kit (o-cpc method), and the ratio of reduction of the calcium concentration in the serum was determined.

[1] = concentration 830 ng/ml, 0 hour (just before administration)
[2] = concentration 830 ng/ml, 1 hour
[3] = concentration 830 ng/ml, 2 hours
[4] = concentration 830 ng/ml, 4 hours
[5] = concentration 830 ng/ml, 6 hours
[6] = concentration 83 ng/ml, 0 hour (just before administration)
[7] = concentration 83 ng/ml, 2 hours
[8] = concentration 83 ng/ml, 4 hours
[9] = concentration 83 ng/ml, 6 hours

| Compound | Serum calcium level as percent of pre-dose baseline [1] | Serum calcium level as percent of pre-dose baseline [2] | Serum calcium level as percent of pre-dose baseline [3] | Serum calcium level as percent of pre-dose baseline [4] | Serum calcium level as percent of pre-dose baseline [5] | Serum calcium level as percent of pre-dose baseline [6] | Serum calcium level as percent of pre-dose baseline (concentration 83 ng/ml, 1 hour) | Serum calcium level as percent of pre-dose baseline [7] | Serum calcium level as percent of pre-dose baseline [8] | Serum calcium level as percent of pre-dose baseline [9] | Serum calcium level as percent of pre-dose baseline (concentration 166 ng/ml, 0 hour (just before administration)) | Serum calcium level as percent of pre-dose baseline (concentration 166 ng/ml, 1 hour) | Serum calcium level as percent of pre-dose baseline (concentration 166 ng/ml, 2 hours) | Serum calcium level as percent of pre-dose baseline (concentration 166 ng/ml, 4 hours) | Serum calcium level as percent of pre-dose baseline (concentration 166 ng/ml, 6 hours) |
| --- | --- | --- | --- | --- | --- | --- | --- | --- | --- | --- | --- | --- | --- | --- | --- |
| CC[C@H](C)[C@H](NC(=O)[C@H](C)NC(=O)[C@@H](NC(=O)[C@H](CCC(N)=O)NC(=O)[C@@H]1CCCN1C(=O)[C@H](Cc1ccc(O)cc1)NC(=O)[C@@H](NC(=O)[C@H](CCC(N)=O)NC(=O)[C@H](CC(C)C)NC(=O)[C@H](CCCCN)NC(=O)[C@H](Cc1c[nH]cn1)NC(=O)[C@H](CC(C)C)NC(=O)[C@H](CCC(=O)O)NC(=O)[C@H](CCC(N)=O)NC(=O)[C@H](CO)NC(=O)[C@H](CC(C)C)NC(=O)[C@H](CCCCN)NC(=O)CNC(=O)[C@H](CC(C)C)NC(=O)[C@H](CCSC)NC(=O)[C@@H]1CSSC[C@H](N)C(=O)NCC(=O)N[C@@H](CC(N)=O)C(=O)N[C@@H](CC(C)C)C(=O)N[C@@H](CO)C(=O)N[C@@H]([C@@H](C)O)C(=O)N1)[C@@H](C)O)[C@@H](C)O)C(=O)NCC(=O)N[C@@H](CO)C(=O)NCC(=O)N[C@H](C(=O)N1CCC[C@H]1C(N)=O)[C@@H](C)O [Peptide No. 5] (H-CGNLSTCMLGKLSQELHKLQTYPQTAIGSGTP-NH2; disulfide 1-7) | 100.0% | 76.4% | 74.2% | 70.7% | 76.4% | – | – | – | – | – | – | – | – | – | – |
| CC[C@H](C)[C@H](NC(=O)[C@H](C)NC(=O)[C@@H](NC(=O)[C@H](CCC(N)=O)NC(=O)[C@@H]1CCCN1C(=O)[C@H](Cc1ccc(O)cc1)NC(=O)[C@@H](NC(=O)[C@H](CCC(N)=O)NC(=O)CNC(=O)[C@H](CCCCN)NC(=O)[C@H](Cc1c[nH]cn1)NC(=O)[C@H](CC(C)C)NC(=O)[C@H](CCC(=O)O)NC(=O)[C@H](CCC(N)=O)NC(=O)[C@H](CO)NC(=O)[C@H](CC(C)C)NC(=O)[C@H](CCCCN)NC(=O)CNC(=O)[C@H](CC(C)C)NC(=O)[C@H](CCSC)NC(=O)[C@@H]1CSSC[C@H](N)C(=O)NCC(=O)N[C@@H](CC(N)=O)C(=O)N[C@@H](CC(C)C)C(=O)N[C@@H](CO)C(=O)N[C@@H]([C@@H](C)O)C(=O)N1)[C@@H](C)O)[C@@H](C)O)C(=O)NCC(=O)N[C@@H](CO)C(=O)NCC(=O)N[C@H](C(=O)N1CCC[C@H]1C(N)=O)[C@@H](C)O [Peptide No. 8] (H-CGNLSTCMLGKLSQELHKGQTYPQTAIGSGTP-NH2; disulfide 1-7) | 100.0% | 76.6% | 78.2% | 99.7% | 96.3% | – | – | – | – | – | – | – | – | – | – |
| CC[C@H](C)[C@H](NC(=O)[C@H](C)NC(=O)[C@@H](NC(=O)[C@H](CCC(N)=O)NC(=O)[C@@H]1CCCN1C(=O)[C@H](Cc1ccc(O)cc1)NC(=O)[C@H](CC(C)C)NC(=O)[C@H](CCCCN)NC(=O)[C@H](Cc1c[nH]cn1)NC(=O)[C@H](CC(C)C)NC(=O)[C@H](CCC(=O)O)NC(=O)[C@H](CCC(N)=O)NC(=O)[C@H](CO)NC(=O)[C@H](CC(C)C)NC(=O)[C@H](CCCCN)NC(=O)CNC(=O)[C@H](CC(C)C)NC(=O)[C@H](CCSC)NC(=O)[C@@H]1CSSC[C@H](N)C(=O)NCC(=O)N[C@@H](CC(N)=O)C(=O)N[C@@H](CC(C)C)C(=O)N[C@@H](CO)C(=O)N[C@@H]([C@@H](C)O)C(=O)N1)[C@@H](C)O)C(=O)NCC(=O)N[C@H](C(=O)NCC(=O)N[C@@H](C)C(=O)N1CCC[C@H]1C(N)=O)C(C)C [Peptide No. 3] (H-CGNLSTCMLGKLSQELHKLYPQTAIGVGAP-NH2; disulfide 1-7) | 100.0% | 97.0% | 94.9% | 86.4% | 89.9% | – | – | – | – | – | – | – | – | – | – |
| CC[C@H](C)[C@H](NC(=O)[C@H](C)NC(=O)[C@@H](NC(=O)[C@H](CCC(N)=O)NC(=O)[C@@H]1CCCN1C(=O)[C@H](Cc1ccc(O)cc1)NC(=O)[C@@H](NC(=O)[C@H](CCC(N)=O)NC(=O)[C@H](CC(C)C)NC(=O)[C@H](CCCCN)NC(=O)[C@H](Cc1c[nH]cn1)NC(=O)[C@H](CC(C)C)NC(=O)[C@H](CCC(=O)O)NC(=O)[C@H](CCC(N)=O)NC(=O)[C@H](CO)NC(=O)[C@H](CC(C)C)NC(=O)[C@H](CCCCN)NC(=O)CNC(=O)[C@H](CC(C)C)NC(=O)[C@H](CCSC)NC(=O)[C@@H]1CCCCNC(=O)C[C@H](N)C(=O)N[C@@H](CC(N)=O)C(=O)N[C@@H](CC(C)C)C(=O)N[C@@H](CO)C(=O)N[C@@H]([C@@H](C)O)C(=O)N1)[C@@H](C)O)[C@@H](C)O)C(=O)NCC(=O)N[C@H](C(=O)NCC(=O)N[C@@H](C)C(=O)N1CCC[C@H]1C(N)=O)C(C)C [Peptide No. 23] (H-DNLSTKMLGKLSQELHKLQTYPQTAIGVGAP-NH2; lactam 1-6) | 100.0% | 68.5% | 61.6% | 56.9% | 71.1% | 100.0% | 73.6% | 72.2% | 83.3% | 82.4% | – | – | – | – | – |
| CC[C@H](C)[C@H](NC(=O)[C@H](C)NC(=O)[C@@H](NC(=O)[C@H](CCC(N)=O)NC(=O)[C@@H]1CCCN1C(=O)[C@H](Cc1ccc(O)cc1)NC(=O)[C@@H](NC(=O)[C@H](CCC(N)=O)NC(=O)[C@H](CC(C)C)NC(=O)[C@H](CCCCN)NC(=O)[C@H](Cc1c[nH]cn1)NC(=O)[C@H](CC(C)C)NC(=O)[C@H](CCC(=O)O)NC(=O)[C@H](CCC(N)=O)NC(=O)[C@H](CO)NC(=O)[C@H](CC(C)C)NC(=O)[C@H](CCCCN)NC(=O)CNC(=O)[C@H](CC(C)C)NC(=O)[C@H](CC(C)C)NC(=O)[C@@H]1CCCCNC(=O)C[C@H](N)C(=O)N[C@@H](CC(N)=O)C(=O)N[C@@H](CC(C)C)C(=O)N[C@@H](CO)C(=O)N[C@@H]([C@@H](C)O)C(=O)N1)[C@@H](C)O)[C@@H](C)O)C(=O)NCC(=O)N[C@H](C(=O)NCC(=O)N[C@@H](C)C(=O)N1CCC[C@H]1C(N)=O)C(C)C [Peptide No. 24] (H-DNLSTKLLGKLSQELHKLQTYPQTAIGVGAP-NH2; lactam 1-6) | 100.0% | 69.1% | 61.9% | 54.4% | 53.0% | 100.0% | 71.1% | 70.7% | 85.6% | 80.1% | – | – | – | – | – |
| CC[C@H](C)[C@H](NC(=O)[C@H](C)NC(=O)[C@@H](NC(=O)[C@H](CCC(N)=O)NC(=O)[C@@H]1CCCN1C(=O)[C@H](Cc1ccc(O)cc1)NC(=O)[C@@H](NC(=O)[C@H](CCC(N)=O)NC(=O)[C@H](CC(C)C)NC(=O)[C@H](CCCCN)NC(=O)[C@H](Cc1c[nH]cn1)NC(=O)[C@H](CC(C)C)NC(=O)[C@H](CCC(=O)O)NC(=O)[C@H](CCC(N)=O)NC(=O)[C@H](CO)NC(=O)[C@H](CC(C)C)NC(=O)[C@H](CCCCN)NC(=O)CNC(=O)[C@H](CC(C)C)NC(=O)[C@H](CC(C)C)NC(=O)[C@@H]1CCCCNC(=O)C[C@H](NC(C)=O)C(=O)N[C@@H](CC(N)=O)C(=O)N[C@@H](CC(C)C)C(=O)N[C@@H](CO)C(=O)N[C@@H]([C@@H](C)O)C(=O)N1)[C@@H](C)O)[C@@H](C)O)C(=O)NCC(=O)N[C@H](C(=O)NCC(=O)N[C@@H](C)C(=O)N1CCC[C@H]1C(N)=O)C(C)C [Peptide No. 25] (Ac-DNLSTKLLGKLSQELHKLQTYPQTAIGVGAP-NH2; lactam 1-6) | 100.0% | 73.4% | 64.3% | 51.8% | 44.3% | 100.0% | 76.9% | 67.6% | 66.7% | 71.3% | – | – | – | – | – |
| AGNLSTAMLGKLSQELHKLQTYPQTAIGVGAP-NH2 [Peptide No. 14] | – | – | – | – | – | – | – | – | – | – | 100.0% | 76.0% | 70.0% | 74.3% | 73.7% |
